Measurements as given in patent publication US8114903B2, “Cytokine modulators using cyclic glycerides of essential polyunsaturated fatty acids” (BTG International Limited, priority 2005, dated 2012).
Like-named read-outs stand apart in the source and are kept apart here.

How the values were obtained:
[1] = Storage stability in air at room temperature; type: physicochemical; conditions: similar to GLA, best stored long term in a cool place under nitrogen
Procedure: For the purposes of this exemplification, the synthesis of this ester was carried out by acylation of the commercially available glycerol formal mixture using γ-linolenoyl chloride. By this method a mixture of two products is formed and these were separable by column chromatography. The undesired by-product is eluted off the column first; further elution gives the desired acetal-ester.

[2] = test system: TGF-β1; test: TGF-β1 production by spleen mononuclear cells of C57/BL mice dosed orally with 2 GLA MG formal (ELISA); type: in vivo; conditions: for Spleen mononuclear cell TGFβ production: Con A and unstimulated data combined, n=9/group, mean ± SEM
Procedure: C57/BL mice were dosed orally with 2 GLA MG formal at two doses of 50 and 150 ul for eight days. The compound was supplied in 8 separate tubes to be stored at 4° C. prior to dosing but warmed to 25° C. before use.
Data were therefore combined for the purposes of statistical analysis (n=9/group). Data were analysed using Graphpad Instat.

[3] = mouse, in vivo
[4] = test system: TGF-β1; conditions: monoglyceride 50 μg
Procedure: Solublization of Sn-2 monoglyceride was performed using ethyl alcohol or DMSO for in vitro work on human peripheral blood mononuclear cells (PBMCs). […] SJL mice were fed sn-2 GLA of Example 1 at three doses (50, 125 and 250 μl) for seven days by gavage. […] After seven days animals were killed and the brain, liver and spleen were removed the liver and brain frozen at −70° C. and mononuclear cells were isolated from spleens by sieving and density centrifugation on Lymphoprep (Sigma Chemical Co) and cultured at 37° C. in 5% CO2 atmosphere in 5 ml culture tubesat a cell density of 1×10^6 cells/ml in RPMI 1640 medium in 5% foetal calf serum (FCS). Cells were cultured with and without 1 μg/ml or […] concanavalin A (Con A) for approximately 20 hours and the supernatants removed and stored at −70° C. until required. Mouse […] was measured in supernatants using a commercially available ELISA (Promega, Madison Wis.).

Regurgitation after gavage [3] | SMILES | Stability in air [1] | Spleen mononuclear cell TGFβ production ([2]; 50 ul orally for eight days) [pg/mL] | Increase of spleen mononuclear cell TGFβ production vs controls ([2]; 150 ul orally for eight days) | Spleen mononuclear cell TGFβ production ([2]; 150 ul orally for eight days) [pg/mL] | Change % of TGF-β1 production vs control ([4]; Con A 0 μg/ml) [%] | TGF-β1 production from spleen PBMCs, unstimulated ([4]; Con A 0 μg/ml, fed by gavage for seven days, cells cultured about 20 hours) [pg/mL] | Change % of TGF-β1 production vs control ([4]; Con A 1 μg/ml) [%] | TGF-β1 production from spleen PBMCs, stimulated (Con A) ([4]; Con A 1 μg/ml, fed by gavage for seven days, cells cultured about 20 hours) [pg/mL] | Change % of TGF-β1 production vs control ([4]; Con A 25 μg/ml) [%] | TGF-β1 production from spleen PBMCs, stimulated (Con A) ([4]; Con A 25 μg/ml, fed by gavage for seven days, cells cultured about 20 hours) [pg/mL]
 | CCCCC/C=C\C/C=C\C/C=C\CCCCC(=O)OC1COCOC1 [GLA 2-MG-F, 5-(γ-linolenoyloxy)-1,3-dioxan] | stable in air at room temperature for short periods (days) | 90.9 ± 5.2 | P < 0.0001 ↑ 103% | 158.6 ± 7.5 |  |  |  |  |  | 
prone to regurgitation | CCCCC/C=C\C/C=C\C/C=C\CCCCC(=O)OC(CO)CO [γ-linolenic acid monoglyceride] |  |  |  |  | 80 | 377 | 79 | 409 | 42 | 480
